The values that follow come from patent US5574166A, “Crystalline form of 2-(2-hydroxy-3-α-cumyl-5-tert-octylphenyl)-2H-benzotriazole” (Ciba-Geigy Corporation, priority 1995, dated 1996).

“Also recorded” adds a separate entry of the source.

A short description of data set [1]: Photostability of UV absorber in gelatine layer on polyester base (Example 21). The class given is physicochemical. Particulars: for photostability (in words): 30-120 kJ/cm^2 exposure; for Dmax (maximum density in the range 330-380 nm): before exposure, gelatine layer. The protocol:
The amount of UV absorber shown in the table below is dissolved in 2 ml of ethyl acetate. 1 ml of this solution is mixed with 9 ml of an aqueous gelatine solution [comprising 27.6 g/l of gelatine and 6.8 g/l of an 8% aqueous solution of 4,8-diisobutylnaphthalene-2-sulfonic acid (sodium salt) as wetting agent]. This mixture is emulsified for 3 minutes by means of ultrasound. 7.5 ml of this UV absorber emulsion are mixed with 4.5 ml of an aqueous curing agent solution (comprising 0.24% of 2-hydroxy-4,6-dichloro-s-triazine, potassium salt). 8 ml of this emulsion are poured onto a polyester base (13×18 cm). The casting is cured for 7 days at room temperature. A UV spectrometer is then used to determine the values for the maximum density in the range from 330-380 nm. The sample is then exposed in an Arias exposure unit with a total of 30, 60, 90 and 120 kJ/cm^2, the maximum density is remeasured, and the difference (-ΔD in %) between the corresponding values is calculated.

The nature of data set [2]: Solubility of benzotriazole UV absorbers in organic solvents (percent solids of saturated filtrate, ASTM D 2369-81). Particulars: for Solubility in organic solvents (in words): organic / coatings solvents. The protocol: The relative solubility of three different benzotriazole UV absorbers in a five typical organic solvents is measured by dissolving the benzotriazole UV absorber in 50-100 mL of five different solvents till the solutions become supersaturated. This is seen when the benzotriazole begins to settle to the bottom of the test flask. The supersaturated solutions are allowed to remain undisturbed overnight. Then, the top layer is decanted and filtered. […] The higher the percent solids found indicates a more soluble benzotriazole.

The nature of data set [3]: Handling properties and storage stability of the solid form. The format is physicochemical. Particulars: apparent density.
The nature of data set [4]: Volatility of UV absorber. The class given is physicochemical. As to conditions: long-term coating uses.
Data set [5] is described as follows: Light stabilization effectiveness (general statement). As to conditions: versus 2-[2-hydroxy-3,5-di(α-cumyl)phenyl]-2H-benzotriazole.
[6] abbreviates: EXXATE ® 600 (hexyl acetate from Exxon).
The mark [7] stands for this setting: PM acetate (1-methoxy-2-propyl acetate).
[8] abbreviates: PM solvent (1-methoxy-2-propanol).

Regarding `CCC(C)c1cc(C(C)(C)C)cc(-n2nc3ccccc3n2)c1O` (stereo not drawn) [A, 2(2-hydroxy-3-sec-butyl-5-tert-butylphenyl)-2H-benzotriazole], the “photostability (in words)” value in data set [1] is “not as photostable as the UV absorbers D, E and F”. The ΔD in % was 4% in data set [1] (30 KJ exposure (kJ/cm^2)), 8% in data set [1] (60 KJ exposure (kJ/cm^2)), 16% in data set [1] (90 KJ exposure (kJ/cm^2)) and 25% in data set [1] (120 KJ exposure (kJ/cm^2)). In addition, the “Dmax (maximum density in the range 330-380 nm)” value (“Dmax” below) in data set [1] is 2.0.
As to `CCCCCCCCCCCCc1cc(C)cc(-n2nc3ccccc3n2)c1O` [B, 2(2-hydroxy-3-dodecyl-5-methylphenyl)-2H-benzotriazole], the “photostability (in words)” value in data set [1] was “not as photostable as the UV absorbers D, E and F”. Moreover, the ΔD in % in data set [1] (30 KJ exposure (kJ/cm^2)) amounted to 5%; in data set [1] (60 KJ exposure (kJ/cm^2)) it was 10%; in data set [1] (90 KJ exposure (kJ/cm^2)) it was 17%; in data set [1] (120 KJ exposure (kJ/cm^2)) it was 25%. The “Dmax” value in data set [1] stood at 2.1.
With `CC(C)(C)CC(C)(C)c1cc(-n2nc3ccccc3n2)c(O)c(C(C)(C)c2ccccc2)c1` [E, 2(2-hydroxy-3-cumyl-5-tert-octylphenyl)-2H-benzotriazole], the ΔD in % was 3% in data set [1] (30 KJ exposure (kJ/cm^2)), 4% in data set [1] (60 KJ exposure (kJ/cm^2)), 5% in data set [1] (90 KJ exposure (kJ/cm^2)) and 7% in data set [1] (120 KJ exposure (kJ/cm^2)). Further, the “Dmax” value in data set [1] was found to be 2.0. The “Solubility in organic solvents (in words)” value (shortened to “Solubility … (in words)”) in data set [2] is listed as “do not suffer from the solubility limitations of UV absorber D in non-HAPS solvents”.
On to `CC(C)(C)CC(C)(C)c1cc(-n2nc3ccccc3n2)c(O)c(C(C)(C)c2ccccc2)c1` [Example 2, 2-(2-Hydroxy-3-α-cumyl-5-tert-octylphenyl)-2H-benzotriazole], for which, in data set [3] (listed as Example 18), the “flowability, meterability and storage stability” value is “poor flowability, meterability and storage stability”.
In the case of `CC(C)(C)CC(C)(C)c1cc(-n2nc3ccccc3n2)c(O)c(C(C)(C)c2ccccc2)c1` [Example 3, 2-(2-hydroxy-3-α-cumyl-5-tert-octylphenyl)-2H-benzotriazole], in data set [2] (non-HAPS solvents), the “Ease and rate of dissolution” value was “dissolves much more easily and rapidly in the non-HAPS solvents”. Besides, the entries for the “Solubility … (in words)” value in data set [2] and in data set [2] (listed as amorphous modification) were “essentially the same solubility parameters in the various solvents as seen in Example 13 for the new crystalline modification” and “excellent solubility characteristics”, respectively.
For `CCCCCCCCCc1cc(-n2nc3ccccc3n2)c(O)c(C(C)(C)c2ccccc2)c1` [Example 4, 2-(2-Hydroxy-3-α-cumyl-5-nonylphenyl)-2H-benzotriazole], the Solubility in data set [2] (setting [6]), in data set [2] (setting [7]), in data set [2] (acetone), in data set [2] (butyl acetate), in data set [2] (methyl amyl ketone) and in data set [2] (xylene) was greater than 50 grams/100 solvent throughout.
Consider `CC(C)(C)CC(C)(C)c1cc(-n2nc3ccccc3n2)c(O)c(C(C)(C)c2ccccc2)c1` [Example 7, 2-(2-hydroxy-3-α-cumyl-5-tert-octylphenyl)-2H-benzotriazole], for which, in data set [3] (listed as compound of formula I), the “flowability, meterability and storage stability” value is “acceptable properties in respect to handling, apparent density, flowability, meterability and storage stability”. In addition, the volatility result in data set [4] was “same low volatility”. The Solubility is reported as 22 grams/100 solvent in data set [2] (setting [6]); 14 grams/100 solvent in data set [2] (setting [7]); 4 grams/100 solvent in data set [2] (setting [8]); 33 grams/100 solvent in data set [2] (butyl acetate); 33 grams/100 solvent in data set [2] (methyl amyl ketone); 76 grams/100 solvent in data set [2] (xylene). In data set [2], the “Solubility … (in words)” value is on record as “soluble in environmentally friendly solvents”. The light stabilization effectiveness result in data set [5] is reported as “superior light stabilization effectiveness”.
On to `CCCCCCCCCCCCc1cc(-n2nc3ccccc3n2)c(O)c(C(C)(C)c2ccccc2)c1` [Example 10, 2-(2-Hydroxy-3-α-cumyl-5-dodecylphenyl)-2H-benzotriazole], for which the ΔD in % in data set [1] (30 KJ exposure (kJ/cm^2)) was 2%; in data set [1] (60 KJ exposure (kJ/cm^2)) it was 4%; in data set [1] (90 KJ exposure (kJ/cm^2)), 5%; in data set [1] (120 KJ exposure (kJ/cm^2)), 8%. In data set [1], the “Dmax” value is listed as 1.9. For the same compound, the Solubility in data set [2] (setting [6]), in data set [2] (setting [7]), in data set [2] (acetone), in data set [2] (butyl acetate), in data set [2] (methyl amyl ketone) and in data set [2] (xylene) was greater than 50 grams/100 solvent each time. In addition, the “Solubility … (in words)” value in data set [2] is recorded as “do not suffer from the solubility limitations of UV absorber D in non-HAPS solvents”.
On to `CC(C)(c1ccccc1)c1cc(-n2nc3ccccc3n2)c(O)c(C(C)(C)c2ccccc2)c1` [UV absorber A, 2(2-hydroxy-3,5-di-cumylphenyl)-2H-benzotriazole], for which the “photostability (in words)” value in data set [1] is “no more stable than are UV absorbers E and F”. The ΔD in % in data set [1] (30 KJ exposure (kJ/cm^2)) amounted to 0%; in data set [1] (60 KJ exposure (kJ/cm^2)), 5%. Moreover, the “Dmax” value in data set [1] is given as 1.9. Further, in data set [4], the volatility result is reported as “excellent non-volatility”. In addition, the Solubility in data set [2] (setting [6]) turned out to be 4 grams/100 solvent; in data set [2] (setting [7]) it was 3 grams/100 solvent; in data set [2] (butyl acetate) it was 6 grams/100 solvent; in data set [2] (methyl amyl ketone), 4 grams/100 solvent; in data set [2] (xylene) it was 14 grams/100 solvent. The “Solubility … (in words)” value in data set [2] (listed as 2-(2-hydroxy-3,5-di-α-cumylphenyl)-2H-benzotriazole) is “relatively insoluble; also recorded: sparingly soluble”; in data set [2] (listed as 2-[2-hydroxy-3,5-di(α-cumyl)phenyl]-2H-benzotriazole), “sparingly soluble in environmentally more friendly solvents”. Also, in data set [2] (toluene or xylene), the “solubility in toluene or xylene” value is given as “about 14 % by weight”. For the same compound, in data set [2] (xylene), the “soluble at level in xylene” value was ~14 % (by weight).
On to `CCC(C)(C)c1cc(-n2nc3ccccc3n2)c(O)c(C(C)(C)CC)c1` [UV absorber B], for which the “photostability (in words)” value in data set [1] is “not as photostable as the UV absorbers D, E and F”. Further, the ΔD in % was 4% in data set [1] (30 KJ exposure (kJ/cm^2)), 7% in data set [1] (60 KJ exposure (kJ/cm^2)), 12% in data set [1] (90 KJ exposure (kJ/cm^2)) and 24% in data set [1] (120 KJ exposure (kJ/cm^2)). The “Dmax” value in data set [1] is 2.1. Also, in data set [4], the volatility entry is “too volatile for long term coating uses”. Also, the Solubility in data set [2] (setting [6]) turned out to be 24 grams/100 solvent; in data set [2] (setting [7]) it was 10 grams/100 solvent; in data set [2] (setting [8]), 4 grams/100 solvent; in data set [2] (butyl acetate) it was 27 grams/100 solvent; in data set [2] (methyl amyl ketone), 24 grams/100 solvent; in data set [2] (xylene), 54 grams/100 solvent. Further, the “Solubility … (in words)” value in data set [2] is “clearly quite soluble even in the solvents other then xylene”.
